Biological target: T1, Renin (Homo sapiens, UniProt P00797)
T1 sequence (P00797 whole entry): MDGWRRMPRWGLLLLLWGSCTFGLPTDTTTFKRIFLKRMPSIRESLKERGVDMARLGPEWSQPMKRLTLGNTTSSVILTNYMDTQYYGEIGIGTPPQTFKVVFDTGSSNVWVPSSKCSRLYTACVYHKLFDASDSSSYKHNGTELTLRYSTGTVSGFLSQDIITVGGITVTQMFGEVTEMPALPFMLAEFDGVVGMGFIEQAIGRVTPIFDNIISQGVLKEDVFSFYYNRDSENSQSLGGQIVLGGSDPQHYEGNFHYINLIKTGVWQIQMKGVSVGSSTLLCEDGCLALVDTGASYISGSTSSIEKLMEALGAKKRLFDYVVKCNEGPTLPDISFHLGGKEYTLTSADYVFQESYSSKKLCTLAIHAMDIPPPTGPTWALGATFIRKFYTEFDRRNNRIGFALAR
Test: Inhibitory Effects on Human Renin Activity Assay
Method: Briefly, human recombinant renin (from the kit) was incubated with the compound of the disclosure or buffer for 30 min at 37° C. before substrate addition. Fluorescence intensity was measured at 530 nm after an incubation of 15 min at 37° C. Data was analyzed by Prism and fitted into a sigmodal curve for IC50 calculation.

CO[C@H]1C[C@H](Nc2cc(C3CC3)cnc2C(=O)N(CC(C)C)C2CNCC(C(=O)N3CCOC(C)(C)C3)C2)C1 (stereo partly specified) [US20240327385, Example 8]
IC50: 1.6 nM
